Measured values reported in ChEMBL document CHEMBL3885861, “Open TG-GATES”.

Species: Rattus norvegicus
Test: Open TG-GATES - Regimen: Daily Repeat
Type: toxicity, organism-based, Sprague-Dawley
Parameters: regimen Daily Repeat, gender Male, age 6 weeks
Conditions: in vivo, po, 250 mg/kg, route gavage, dose level High; for APTT / Bas / Eos / Fbg / Hb / Ht / Lym / MCH / MCHC / MCV / Mono / Neu / PT / Plat / RBC / Ret / WBC: tissue Blood; for KIDNEY_L / KIDNEY_R / KIDNEY_TOTAL: tissue Kidney; for LIVER: tissue Liver; for A/G / ALP / ALT / AST / BUN / CRE / Ca / Cl / DBIL / GLC / IP / K / LDH / Na / PL / RALB / TBIL / TC / TG / TP / gamma-GTP: tissue Plasma

Compound: CCSCC[C@H](N)C(=O)O [ETHIONINE]
- TERMINAL_BW (72 h, time 3 day): 209.1 g
- APTT (72 h, time 3 day): 27.3 s
- Bas (72 h, time 3 day): 0%
- Eos (72 h, time 3 day): 1%
- Fbg (72 h, time 3 day): 204.2 mg/dL
- Hb (72 h, time 3 day): 15.1 g/dL
- Ht (72 h, time 3 day): 43.9%
- Lym (72 h, time 3 day): 87%
- MCH (72 h, time 3 day): 21.5 pg
- MCHC (72 h, time 3 day): 34.3%
- MCV (72 h, time 3 day): 62.9 fL
- Mono (72 h, time 3 day): 2.4%
- Neu (72 h, time 3 day): 8.8%
- PT (72 h, time 3 day): 16.2 s
- Plat (72 h, time 3 day): 114.9 x10_4/uL
- RBC (72 h, time 3 day): 698.8 x10_4/ul
- Ret (72 h, time 3 day): 4%
- WBC (72 h, time 3 day): 108.9 x10_2/uL
- KIDNEY_L (72 h, time 3 day): 0.9 g
- KIDNEY_R (72 h, time 3 day): 0.9 g
- KIDNEY_TOTAL (72 h, time 3 day): 1.9 g
- LIVER (72 h, time 3 day): 8.7 g
- A/G (72 h, time 3 day): 1.9
- ALP (72 h, time 3 day): 1059.2 IU/L
- ALT (72 h, time 3 day): 42 IU/L
- AST (72 h, time 3 day): 73.2 IU/L
- BUN (72 h, time 3 day): 15.8 mg/dL
- CRE (72 h, time 3 day): 0.4 mg/dL
- Ca (72 h, time 3 day): 10.4 mg/dL
- Cl (72 h, time 3 day): 102 meq/L
- DBIL (72 h, time 3 day): 0.09 mg/dL
- GLC (72 h, time 3 day): 183.8 mg/dL
- IP (72 h, time 3 day): 8.3 mg/dL
- K (72 h, time 3 day): 3.8 meq/L
- LDH (72 h, time 3 day): 236.4 IU/L
- Na (72 h, time 3 day): 140 meq/L
- PL (72 h, time 3 day): 94 mg/dL
- RALB (72 h, time 3 day): 3.5 g/dL
- TBIL (72 h, time 3 day): 0.2 mg/dL
- TC (72 h, time 3 day): 36.6 mg/dL
- TG (72 h, time 3 day): 40.4 mg/dL
- TP (72 h, time 3 day): 5.5 g/dL
- gamma-GTP (72 h, time 3 day): 0.8 IU/L
- TERMINAL_BW ([…], time 7 day): 226 g
- TERMINAL_BW ([…], time 14 day): 268.3 g
- TERMINAL_BW ([…], time 28 day): 314.2 g
- APTT ([…], time 7 day): 28 s
- Bas ([…], time 7 day): 0%
- Eos ([…], time 7 day): 0.4%
- Fbg ([…], time 7 day): 210.4 mg/dL
- Hb ([…], time 7 day): 15.1 g/dL
- Ht ([…], time 7 day): 44.3%
- Lym ([…], time 7 day): 83.4%
- MCH ([…], time 7 day): 20.9 pg
- MCHC ([…], time 7 day): 34%
- MCV ([…], time 7 day): 61.6 fL
- Mono ([…], time 7 day): 2.2%
- Neu ([…], time 7 day): 13.6%
- PT ([…], time 7 day): 15.5 s
- Plat ([…], time 7 day): 87.8 x10_4/uL
- RBC ([…], time 7 day): 720.4 x10_4/ul
- Ret ([…], time 7 day): 1%
- WBC ([…], time 7 day): 122.2 x10_2/uL
- APTT ([…], time 14 day): 26 s
- Bas ([…], time 14 day): 0%
- Eos ([…], time 14 day): 0.6%
- Fbg ([…], time 14 day): 205.4 mg/dL
- Hb ([…], time 14 day): 14.3 g/dL
- Ht ([…], time 14 day): 42.2%
- Lym ([…], time 14 day): 75.8%
- MCH ([…], time 14 day): 19.9 pg
- MCHC ([…], time 14 day): 34%
- MCV ([…], time 14 day): 58.5 fL
- Mono ([…], time 14 day): 2.6%
- Neu ([…], time 14 day): 20.2%
- PT ([…], time 14 day): 15.4 s
- Plat ([…], time 14 day): 100.5 x10_4/uL
- RBC ([…], time 14 day): 722.2 x10_4/ul
- Ret ([…], time 14 day): 3.8%
- WBC ([…], time 14 day): 133.6 x10_2/uL
- APTT ([…], time 28 day): 27.8 s
- Bas ([…], time 28 day): 0%
- Eos ([…], time 28 day): 0.6%
- Fbg ([…], time 28 day): 200.6 mg/dL
- Hb ([…], time 28 day): 15.9 g/dL
- Ht ([…], time 28 day): 45.4%
- Lym ([…], time 28 day): 77%
- MCH ([…], time 28 day): 19.4 pg
- MCHC ([…], time 28 day): 35%
- MCV ([…], time 28 day): 55.4 fL
- Mono ([…], time 28 day): 2.2%
- Neu ([…], time 28 day): 19.6%
- PT ([…], time 28 day): 16.1 s
- Plat ([…], time 28 day): 95.1 x10_4/uL
- RBC ([…], time 28 day): 820.2 x10_4/ul
- Ret ([…], time 28 day): 1.6%
- WBC ([…], time 28 day): 91.7 x10_2/uL
- KIDNEY_L ([…], time 7 day): 1 g
- KIDNEY_R ([…], time 7 day): 1 g
- KIDNEY_TOTAL ([…], time 7 day): 2 g
- KIDNEY_L ([…], time 14 day): 1.1 g
- KIDNEY_R ([…], time 14 day): 1.1 g
- KIDNEY_TOTAL ([…], time 14 day): 2.3 g
- KIDNEY_L ([…], time 28 day): 1.1 g
- KIDNEY_R ([…], time 28 day): 1.1 g
- KIDNEY_TOTAL ([…], time 28 day): 2.3 g
- LIVER ([…], time 7 day): 9.3 g
- LIVER ([…], time 14 day): 10.5 g
- LIVER ([…], time 28 day): 11.6 g
- A/G ([…], time 7 day): 2
- ALP ([…], time 7 day): 1237 IU/L
- ALT ([…], time 7 day): 44 IU/L
- AST ([…], time 7 day): 62.8 IU/L
- BUN ([…], time 7 day): 16.6 mg/dL
- CRE ([…], time 7 day): 0.4 mg/dL
- Ca ([…], time 7 day): 10.4 mg/dL
- Cl ([…], time 7 day): 105.2 meq/L
- DBIL ([…], time 7 day): 0.1 mg/dL
- GLC ([…], time 7 day): 178.4 mg/dL
- IP ([…], time 7 day): 5.9 mg/dL
- K ([…], time 7 day): 3.7 meq/L
- LDH ([…], time 7 day): 214.2 IU/L
- Na ([…], time 7 day): 141.8 meq/L
- PL ([…], time 7 day): 118.2 mg/dL
- RALB ([…], time 7 day): 3.5 g/dL
- TBIL ([…], time 7 day): 0.2 mg/dL
- TC ([…], time 7 day): 45.8 mg/dL
- TG ([…], time 7 day): 76.4 mg/dL
- TP ([…], time 7 day): 5.3 g/dL
- gamma-GTP ([…], time 7 day): 1 IU/L
- A/G ([…], time 14 day): 1.9
- ALP ([…], time 14 day): 959.2 IU/L
- ALT ([…], time 14 day): 33.2 IU/L
- AST ([…], time 14 day): 58 IU/L
- BUN ([…], time 14 day): 18.8 mg/dL
- CRE ([…], time 14 day): 0.4 mg/dL
- Ca ([…], time 14 day): 10.2 mg/dL
- Cl ([…], time 14 day): 103 meq/L
- DBIL ([…], time 14 day): 0.1 mg/dL
- GLC ([…], time 14 day): 189.8 mg/dL
- IP ([…], time 14 day): 6.9 mg/dL
- K ([…], time 14 day): 3.6 meq/L
- LDH ([…], time 14 day): 196 IU/L
- Na ([…], time 14 day): 142 meq/L
- PL ([…], time 14 day): 135.8 mg/dL
- RALB ([…], time 14 day): 3.5 g/dL
- TBIL ([…], time 14 day): 0.2 mg/dL
- TC ([…], time 14 day): 57.4 mg/dL
- TG ([…], time 14 day): 80.2 mg/dL
- TP ([…], time 14 day): 5.4 g/dL
- gamma-GTP ([…], time 14 day): 0.8 IU/L
- A/G ([…], time 28 day): 1.9
- ALP ([…], time 28 day): 934.8 IU/L
- ALT ([…], time 28 day): 34 IU/L
- AST ([…], time 28 day): 62.4 IU/L
- BUN ([…], time 28 day): 19.2 mg/dL
- CRE ([…], time 28 day): 0.5 mg/dL
- Ca ([…], time 28 day): 10 mg/dL
- Cl ([…], time 28 day): 105.2 meq/L
- DBIL ([…], time 28 day): 0.1 mg/dL
- GLC ([…], time 28 day): 177 mg/dL
- IP ([…], time 28 day): 5.6 mg/dL
- K ([…], time 28 day): 3.5 meq/L
- LDH ([…], time 28 day): 271.6 IU/L
- Na ([…], time 28 day): 143 meq/L
- PL ([…], time 28 day): 126.4 mg/dL
- RALB ([…], time 28 day): 3.8 g/dL
- TBIL ([…], time 28 day): 0.2 mg/dL
- TC ([…], time 28 day): 49.2 mg/dL
- TG ([…], time 28 day): 101.4 mg/dL
- TP ([…], time 28 day): 5.8 g/dL
- gamma-GTP ([…], time 28 day): 1 IU/L
